Measured values from patent US10857102B2, “Therapeutic compositions comprising rilpivirine HCL and tenofovir disoproxil fumarate” (priority 2010, dated 2020).

Assay: Rilpivirine dissolution rate (laboratory data, FIG. 9)
Format: physicochemical
Text: Formulation 3 and Formulation 4 differ in the weight of extragranular excipients and in the amount of croscarmellose sodium present. […] It may be postulated that the higher amounts of diluents in the rilpivirine layer of Formulation 3 that was bioequivalent to the rilpivirine single agent reference tablet could have served to lessen the extent of contact and interactions between rilpivirine and emtricitabine and/or tenofovir DF and achieve bioequivalence.
In addition, the higher amount of croscarmellose sodium, a superdisintegrant, leads to faster layer disintegration and separation of the rilpivirine layer from the emtricitabine/tenofovir DF layer minimizing any potential interactions between rilpivirine with emtricitabine and/or tenofovir DF. […] This is possibly due to the basifying nature of this excipient.

For `Cc1cc(/C=C/C#N)cc(C)c1Nc1ccnc(Nc2ccc(C#N)cc2)n1.Cl` [rilpivirine, Rilpivirine HCl], the rilpivirine dissolution rate (higher concentrations of croscarmellose sodium in the rilpivirine layer, FIG. 9) was “decreased” and the “intrinsic dissolution rate of rilpivirine” value (in the presence of emtricitabine and/or tenofovir DF) was “increased”.
